Results: patent US7960614B2, “Plant transformation and selection” (Arborgen, LLC, priority 2003, dated 2011)

Columns and labels:
loblolly pine cell lines = test: als/Ally selection on medium without casein hydrolysate, PCR verification (Example 28); type: cell-based, Pinus taeda; settings: selection on 50 nM or 100 nm Ally, no casein hydrolysate; seven sublines tested by PCR
Excerpt: In this example, five loblolly pine cell lines from four elite families were transformed with plasmids containing the als selectable marker, and selection was done on a sulfonylurea-containing selection medium modified to exclude casein hydrolysate. The five pine cell lines were initiated as described in Example 26, except that one of the five lines was an elite loblolly cross grown in an International Paper seed orchard in Georgia. The lines were cryopreserved, retrieved, and cultured as uniform suspensions as described in Example 26.
To prepare for gene transfer, polyester membrane supports were sterilized by autoclaving and placed in separate sterile Buchner funnels, and for each of six replicate plates per cell line, one to three milliliters of pine embryogenic suspension was pipetted onto each support such that the embryogenic tissue was evenly distributed. The liquid medium was suctioned from the tissues and each support bearing the embryogenic tissue was placed on gelled DCR3 preparation medium for Agrobacterium inoculation according to the methods described in U.S. Patent Publication No. 20020100083. […]

loblolly cell lines [1] = test: pWVC23 transformants selected on Ally, checked on Geneticin and by PCR (Example 30); type: cell-based, Pinus taeda; settings: Ally at either 50 or 100 nM
Procedure: Two loblolly cell lines were prepared for transformation using the same methods of Example 28, and co-cultivated with Agrobacterium tumefaciens transformed with pWVC23(FIG. 3), also as described in Example 28. Following eradication of Agrobacterium, each cell line was equally divided onto selection medium containing either Geneticin at 15 mg/L or Ally at either 50 or 100 nM. After putatively transformed sublines were grown to a sufficient size, nine sublines grown on Ally-containing media were transferred to Geneticin-containing media to check transformation status rapidly before PCR. 100% of these lines are able to grow on Geneticin-containing media. Five of these lines were then checked with PCR using the six primer pairs described in Example 28. 100% of these lines were confirmed postive transformants by PCR.

[2] = test system: 13 loblolly and hybrid pine lines; test: Growth on synthetic casein hydrolysate mixtures with Ally (FIG. 10); type: cell-based, Pinus taeda and hybrid pine; settings: media with amino acid mixture in which branched chain amino acids are absent; Ally 0, 10, 30, or 50 mM
Procedure: The synthetic mixtures were tested in 13 loblolly and hybrid pine lines from 7 genetically diverse families. These lines were initiated and cryopreserved as described in Example 26, and were placed into uniform suspension cultures and plated onto the respective media treatments as described in Example 27. Media for the experiment comprised DCR2 maintenance media containing either 0.5 g/L casein hydrolysate, 0.5 g/L of one of the derived mixtures having the proportions shown in Table 24, or lacking both casein and the amino acid mixtures, and each of these treatments were provided with each of 0, 10, 30, or 50 mM treatments of the herbicide Ally® (commercially available from Dupont™).

[3] = test system: 10 different loblolly and hybrid pine lines; test: Growth on casein hydrolysate or mixture AA4 with 5-methyltryptophan (FIG. 11); type: cell-based, Pinus taeda and hybrid pine; settings: 0, 3, 10, or 30 mg/L 5-methyltryptophan
Excerpt: In another experiment, 10 different loblolly and hybrid pine lines were used, from eight genetically diverse families. These lines were initiated and cryopreserved as described in Example 26, and were placed into uniform suspension cultures and plated onto the respective media treatments as described in Example 26. Media for the experiment comprised DCR2 maintenance media containing either 0.5 g/L casein hydrolysate, 0.5 g/L of the derived mixture AA4 having the proportions shown in Table 24, or lacking both casein and the amino acid mixtures, and each of these treatments were provided with each of 0, 3, 10, or 30 mg/L treatments of 5-methyltryptophan (5MT). The vertical axis is the total weight increase in grams after the respective period.

loblolly cell lines [4] = test: asa2 (pWVC33) selection on Geneticin, 5MT or AMT, PCR check (Example 32); type: cell-based, Pinus taeda; settings: Geneticin 15 mg/L with casein hydrolysate, 5MT or AMT 30 mg/L with AA4
Procedure: Two loblolly cell lines were prepared for transformation using the method of Example 28, and co-cultivated with Agrobacterium tumefaciens transformed with pWVC33 (FIG. 7) as described in Example 28. Following eradication of Agrobacterium, each cell line was equally divided onto 6 plates each of 5 different selection media containing either casein hydrolysate and Geneticin at 15 mg/L, or amino acid mixture AA4 and either 5-methyltryptophan (5MT) at 30 or 50 mg/L or […] (AMT) at 30 or 50 mg/L. The results are show in FIG. 12. Putatively transformed sublines grow on Geneticin-containing plates and on both selection treatments where 30 mg/L of the methylated tryptophan selective analog was incorporated.

What does the source list for `COC(=O)c1ccccc1S(=O)(=O)NC(=O)Nc1nc(C)nc(OC)n1` [Ally]?
false positive rate (loblolly pine cell lines): 14%; lines confirmed positive transformants by PCR (loblolly cell lines [1]; five lines checked): 100%; Ally-selected sublines able to grow on Geneticin-containing media (loblolly cell lines [1]; nine sublines): 100%; growth of cells, FIG. 10 [2]: growth is retarded or stopped to a significant degree

With `Cc1ccc2[nH]cc(C[C@H](N)C(=O)O)c2c1` [5MT30, 5-methyltryptophan] as the compound, how does the “reduction in growth, FIG. 11” value [3] read?
Its value is “only in the absence of tryptophan is it possible to obtain satisfactory reduction in growth”.

And the “False positive Frequency” value (loblolly cell lines [4])?
Its value is 0.13.

What about the “PCR confirmed positive (number of lines)” value (loblolly cell lines [4]; of 12, 8, 22 lines PCR tested) of the same compound?
Its value is 7.
